Source: ChEMBL document CHEMBL1201862, “PubChem BioAssay data set” (2004)
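Protocol summary: plate cells (96-well), add compound at 5 concentrations, incubate 48 h, interpolate endpoints linearly. At the GI50, growth is halved.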 Calls of active or inactive are those of the source. Cut-off read from the data, not from the text of the source: active = GI50 up to about 1.1 µM and inactive = higher.

Tests used:
Assay in all cases: NCI tumour cell line growth inhibition, 48 h
786-0 = tested on: 786-0
A498 = tested on: A498
A549 = tested on: A549
ACHN = tested on: ACHN
CAKI-1 = tested on: CAKI-1
COLO 205 = tested on: COLO 205
DU-145 = tested on: DU-145
EKVX = tested on: EKVX
HCC 2998 = tested on: HCC 2998
HCT-116 = tested on: HCT-116
HCT-15 = tested on: HCT-15
HL-60 = tested on: HL-60
HOP-62 = tested on: HOP-62
HOP-92 = tested on: HOP-92
HT-29 = tested on: HT-29
Hs-578T = tested on: Hs-578T
IGROV-1 = tested on: IGROV-1
K562 = tested on: K562
KM12 = tested on: KM12
LOX IMVI = tested on: LOX IMVI
M14 = tested on: M14
MCF7 = tested on: MCF7
MDA-MB-435 = tested on: MDA-MB-435
MDA-N = tested on: MDA-N
Malme-3M = tested on: Malme-3M
NCI-H226 = tested on: NCI-H226
NCI-H23 = tested on: NCI-H23
NCI-H460 = tested on: NCI-H460
NCI-H522 = tested on: NCI-H522
NCI/ADR-RES = tested on: NCI/ADR-RES
OVCAR-3 = tested on: OVCAR-3
OVCAR-4 = tested on: OVCAR-4
OVCAR-5 = tested on: OVCAR-5
OVCAR-8 = tested on: OVCAR-8
PC-3 = tested on: PC-3
SF-268 = tested on: SF-268
SF-295 = tested on: SF-295
SF-539 = tested on: SF-539
SK-MEL-28 = tested on: SK-MEL-28
SK-MEL-2 = tested on: SK-MEL-2
SK-MEL-5 = tested on: SK-MEL-5
SK-OV-3 = tested on: SK-OV-3
SN12C = tested on: SN12C
SNB-19 = tested on: SNB-19
SNB-75 = tested on: SNB-75
SR = tested on: SR
SW-620 = tested on: SW-620
T47D = tested on: T47D
TK-10 = tested on: TK-10
U-251 = tested on: U-251
UACC-257 = tested on: UACC-257
UACC-62 = tested on: UACC-62
CCRF-CEM = tested on: CCRF-CEM
MDA-MB-231 = tested on: MDA-MB-231
RPMI-8226 = tested on: RPMI-8226
MOLT-4 = tested on: MOLT-4
RXF 393 = tested on: RXF 393
UO-31 = tested on: UO-31

CC1=CC(c2ccccc2)OP1(=O)c1ccccc1 (stereo not given)
GI50 (786-0): > 100 µM (inactive)
GI50 (A498): > 100 µM (inactive)
GI50 (A549): > 100 µM (inactive)
GI50 (ACHN): > 100 µM (inactive)
GI50 (CAKI-1): > 100 µM (inactive)
GI50 (COLO 205): > 100 µM (inactive)
GI50 (DU-145): > 100 µM (inactive)
GI50 (EKVX): > 100 µM (inactive)
GI50 (HCC 2998): > 100 µM (inactive)
GI50 (HCT-116): > 100 µM (inactive)
GI50 (HCT-15): > 100 µM
GI50 (HL-60): > 100 µM (inactive)
GI50 (HOP-62): > 100 µM (inactive)
GI50 (HOP-92): > 100 µM (inactive)
GI50 (HT-29): > 100 µM (inactive)
GI50 (Hs-578T): > 100 µM (inactive)
GI50 (IGROV-1): > 100 µM (inactive)
GI50 (K562): > 100 µM (inactive)
GI50 (KM12): > 100 µM (inactive)
GI50 (LOX IMVI): > 100 µM (inactive)
GI50 (M14): > 100 µM (inactive)
GI50 (MCF7): > 100 µM (inactive)
GI50 (MDA-MB-435): > 100 µM (inactive)
GI50 (MDA-N): > 100 µM (inactive)
GI50 (Malme-3M): > 100 µM (inactive)
GI50 (NCI-H226): > 100 µM (inactive)
GI50 (NCI-H23): > 100 µM (inactive)
GI50 (NCI-H460): > 100 µM (inactive)
GI50 (NCI-H522): > 100 µM (inactive)
GI50 (NCI/ADR-RES): > 100 µM (inactive)
GI50 (OVCAR-3): > 100 µM (inactive)
GI50 (OVCAR-4): > 100 µM (inactive)
GI50 (OVCAR-5): > 100 µM (inactive)
GI50 (OVCAR-8): > 100 µM (inactive)
GI50 (PC-3): > 100 µM (inactive)
GI50 (SF-268): > 100 µM (inactive)
GI50 (SF-295): > 100 µM (inactive)
GI50 (SF-539): > 100 µM (inactive)
GI50 (SK-MEL-28): > 100 µM (inactive)
GI50 (SK-MEL-2): > 100 µM (inactive)
GI50 (SK-MEL-5): > 100 µM (inactive)
GI50 (SK-OV-3): > 100 µM (inactive)
GI50 (SN12C): > 100 µM (inactive)
GI50 (SNB-19): > 100 µM (inactive)
GI50 (SNB-75): > 100 µM (inactive)
GI50 (SR): > 100 µM (inactive)
GI50 (SW-620): > 100 µM (inactive)
GI50 (T47D): > 100 µM (inactive)
GI50 (TK-10): > 100 µM (inactive)
GI50 (U-251): > 100 µM (inactive)
GI50 (UACC-257): > 100 µM (inactive)
GI50 (UACC-62): > 100 µM (inactive)

COc1cc([C@@H]2c3cc4c(cc3[C@@H](NC(=O)NO)[C@H]3COC(=O)[C@H]23)OCO4)cc(OC)c1O
GI50 (786-0): 4.98 µM (inactive)
GI50 (A498): 14 µM (inactive)
GI50 (CAKI-1): 6.31 µM (inactive)
GI50 (CCRF-CEM): 12.7 µM (inactive)
GI50 (COLO 205): 5.3 µM (inactive)
GI50 (EKVX): 7.45 µM (inactive)
GI50 (HCT-116): 4.84 µM (inactive)
GI50 (HCT-15): 3.8 µM
GI50 (HL-60): 3.72 µM (inactive)
GI50 (HOP-62): 5.37 µM (inactive)
GI50 (HOP-92): > 100 µM (inactive)
GI50 (HT-29): 5.19 µM (inactive)
GI50 (IGROV-1): 3.25 µM (inactive)
GI50 (K562): 3.1 µM (inactive)
GI50 (LOX IMVI): 4.58 µM (inactive)
GI50 (MDA-MB-231): 4.42 µM (inactive)
GI50 (MDA-MB-435): 2.29 µM (inactive)
GI50 (MDA-N): 2.15 µM (inactive)
GI50 (NCI-H460): 4.42 µM (inactive)
GI50 (NCI-H522): > 100 µM (inactive)
GI50 (NCI/ADR-RES): 12.7 µM (inactive)
GI50 (OVCAR-4): > 100 µM (inactive)
GI50 (PC-3): 4.91 µM (inactive)
GI50 (RPMI-8226): 4.03 µM (inactive)
GI50 (SF-268): 61.5 µM (inactive)
GI50 (SF-539): 3.6 µM (inactive)
GI50 (SK-MEL-2): 4.38 µM (inactive)
GI50 (SN12C): 4.71 µM (inactive)
GI50 (SNB-19): > 100 µM (inactive)
GI50 (SR): 9.12 µM (inactive)
GI50 (SW-620): 6.19 µM (inactive)
GI50 (T47D): > 100 µM (inactive)
GI50 (TK-10): > 100 µM (inactive)
GI50 (U-251): 6.9 µM (inactive)
GI50 (UACC-257): > 100 µM (inactive)

C[C@@H]1CC[C@]2(C)C3(C)CC[C@]2(OC3=O)[C@@]12CC(c1ccoc1)OC2=O (stereo not given in full)
GI50 (786-0): 20.5 µM (inactive)
GI50 (A498): > 100 µM (inactive)
GI50 (A549): > 100 µM (inactive)
GI50 (ACHN): 22.4 µM (inactive)
GI50 (CAKI-1): 34.3 µM (inactive)
GI50 (CCRF-CEM): 22.8 µM (inactive)
GI50 (COLO 205): 19.3 µM (inactive)
GI50 (DU-145): > 100 µM (inactive)
GI50 (EKVX): 72.3 µM (inactive)
GI50 (HCC 2998): > 100 µM (inactive)
GI50 (HCT-116): 17.5 µM (inactive)
GI50 (HCT-15): 31.4 µM
GI50 (HL-60): 21.6 µM (inactive)
GI50 (HOP-62): > 100 µM (inactive)
GI50 (HOP-92): 32.8 µM (inactive)
GI50 (HT-29): 54.7 µM (inactive)
GI50 (Hs-578T): 54.2 µM (inactive)
GI50 (IGROV-1): 26.9 µM (inactive)
GI50 (K562): 34 µM (inactive)
GI50 (KM12): > 100 µM (inactive)
GI50 (LOX IMVI): 20.3 µM (inactive)
GI50 (M14): 25.1 µM (inactive)
GI50 (MCF7): 61 µM (inactive)
GI50 (MDA-MB-435): 25.3 µM (inactive)
GI50 (MDA-N): 34.4 µM (inactive)
GI50 (MOLT-4): 31 µM (inactive)
GI50 (Malme-3M): 21.1 µM (inactive)
GI50 (NCI-H226): > 100 µM (inactive)
GI50 (NCI-H23): 29.6 µM (inactive)
GI50 (NCI-H460): 86.5 µM (inactive)
GI50 (NCI-H522): 2.15 µM (inactive)
GI50 (NCI/ADR-RES): 49.3 µM (inactive)
GI50 (OVCAR-3): 26.2 µM (inactive)
GI50 (OVCAR-4): 20.7 µM (inactive)
GI50 (OVCAR-5): 30.8 µM (inactive)
GI50 (PC-3): 40.6 µM (inactive)
GI50 (RPMI-8226): 38.2 µM (inactive)
GI50 (RXF 393): 24.8 µM (inactive)
GI50 (SF-268): 37.2 µM (inactive)
GI50 (SF-295): > 100 µM (inactive)
GI50 (SF-539): 30.5 µM (inactive)
GI50 (SK-MEL-28): 26.7 µM (inactive)
GI50 (SK-MEL-2): 58.6 µM (inactive)
GI50 (SK-MEL-5): 62.5 µM (inactive)
GI50 (SK-OV-3): > 100 µM (inactive)
GI50 (SN12C): 33.8 µM (inactive)
GI50 (SNB-19): > 100 µM (inactive)
GI50 (SR): 34.8 µM (inactive)
GI50 (SW-620): 26.9 µM (inactive)
GI50 (T47D): > 100 µM (inactive)
GI50 (TK-10): 39 µM (inactive)
GI50 (U-251): 44.5 µM (inactive)
GI50 (UACC-62): 61.4 µM (inactive)
GI50 (UO-31): 28 µM (inactive)

O=C1c2c(O)ccc(O)c2C(=O)c2c(NCCNCCO)ccc(NCCNCCO)c21 [MITOXANTRONE]
GI50 (A498): 0.112 µM (active)
GI50 (A549): < 0.01 µM (active)
GI50 (HCT-116): 0.0373 µM (active)
GI50 (HOP-92): 0.0355 µM (active)
GI50 (K562): 0.0741 µM (active)
GI50 (MDA-MB-435): 0.259 µM (active)
GI50 (SF-539): < 0.01 µM (active)
GI50 (SK-MEL-5): 0.0719 µM (active)
GI50 (UACC-257): 0.995 µM (active)
